Experiment: Inhibition of human 20S constitutive proteasome beta-2 using Bz-VGR-AMC as substrate after 60 mins by fluorescence assay

SMILES	IC50 [nM]
CC(C)C[C@H](NC(=O)[C@H](CC(C)C)NC(=O)[C@H](Cc1ccccc1)NC(=O)OCc1ccccc1)C(=O)N[C@@H](CCCNC(=N)N)CS(=O)(=O)F	150
CC(C)C[C@H](NC(=O)[C@H](CC(C)C)NC(=O)[C@@H](N)Cc1ccccc1)C(=O)N[C@@H](CCCNC(=N)N)CS(=O)(=O)F	250
CC(=O)N[C@@H](Cc1ccccc1)C(=O)N[C@@H](CC(C)C)C(=O)N[C@@H](CC(C)C)C(=O)N[C@@H](Cc1ccc(N)cc1)CS(=O)(=O)F	2100
CC(C)C[C@H](NC(=O)[C@H](CC(C)C)NC(=O)[C@@H](N)Cc1ccccc1)C(=O)N[C@@H](CCCCN)CS(=O)(=O)F	470
CC(C)C[C@H](NC(=O)[C@H](CC(C)C)NC(=O)[C@@H](N)Cc1ccccc1)C(=O)N[C@@H](Cc1ccc(CN)cc1)CS(=O)(=O)F	140
CC(=O)N[C@@H](Cc1ccccc1)C(=O)N[C@@H](CC(C)C)C(=O)N[C@@H](CC(C)C)C(=O)N[C@@H](CCCCN)CS(=O)(=O)F	1500
CC(=O)N[C@@H](Cc1ccccc1)C(=O)N[C@@H](CC(C)C)C(=O)N[C@@H](CC(C)C)C(=O)N[C@@H](CCCNC(=N)N)CS(=O)(=O)F	980
CC(C)C[C@H](NC(=O)[C@H](Cc1ccccc1)N=[N+]=[N-])C(=O)N[C@@H](CC(C)C)C(=O)N[C@@H](CCCCN)CS(=O)(=O)F	700
CC(C)C[C@H](NC(=O)OCc1ccccc1)C(=O)N[C@@H](CC(C)C)C(=O)N[C@@H](CC(C)C)C(=O)N[C@@H](CCCNC(=N)N)CS(=O)(=O)F	200
CC(=O)N[C@@H](Cc1ccccc1)C(=O)N[C@@H](CC(C)C)C(=O)N[C@@H](CC(C)C)C(=O)N[C@@H](Cc1ccc(CN)cc1)CS(=O)(=O)F	119
CC(C)C[C@H](NC(=O)[C@H](Cc1ccccc1)N=[N+]=[N-])C(=O)N[C@@H](CC(C)C)C(=O)N[C@@H](CCCNC(=N)N)CS(=O)(=O)F	350
CC(C)C[C@H](NC(=O)[C@H](CC(C)C)NC(=O)[C@@H](N)Cc1ccccc1)C(=O)N[C@@H](Cc1ccc(N)cc1)CS(=O)(=O)F	220
CC(C)C[C@H](NC(=O)[C@H](CC(C)C)NC(=O)[C@H](Cc1ccccc1)NC(=O)OC(C)(C)C)C(=O)N[C@@H](CCCNC(=N)N)CS(=O)(=O)F	700

From BindingDB's records for doi:10.1021/acs.jmedchem.8b00685 (University of Glasgow, 2018)
